From US20020119917A1, “ANTI-INFLAMMATORY PEPTIDES DERIVED FROM C-REACTIVE PROTEIN” (priority 1996, published 2002)
Where two headings read alike, the source gives them in different places. Starred links: 1 amine or outer side, 2 acyl side, 3 side chain; linkers in the order of their positions; H or OH if unused. Non-standard residues stand in square brackets, D forms with d. Residues, ends and D or L forms follow the SMILES beside them. No end group written: not given here. *: point of attachment. Fmoc = O=C(OCC1c2ccccc2-c2ccccc21)*; NH(1-naphthyl) = c1ccc2c(N*)cccc2c1; Cbz = O=C(OCc1ccccc1)*; CO = O=C([*:1])[*:2]

Key:
[1] = biological target: T1, human leukocyte elastase (hLE) (Homo sapiens, UniProt P08246); assay: In-vitro inhibition of hLE (cleavage of MeOSuc-AAPV-NA); type: biochemical
T1 construct: Neutrophils (1.4 billion) were isolated from whole blood obtained from a single healthy laboratory donor; from tissue; host or cells: neutrophils from whole blood of a single healthy donor
T1 sequence (P08246 30-247 limits assumed): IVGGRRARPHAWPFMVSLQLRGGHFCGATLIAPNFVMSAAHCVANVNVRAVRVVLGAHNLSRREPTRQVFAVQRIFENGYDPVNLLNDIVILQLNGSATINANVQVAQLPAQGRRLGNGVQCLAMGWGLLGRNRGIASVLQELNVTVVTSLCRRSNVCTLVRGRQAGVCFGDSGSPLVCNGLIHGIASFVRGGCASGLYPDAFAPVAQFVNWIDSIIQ
Protocol: (§1) The enzymatic activity was assayed with MeOSuc-AAPV-NA for hLE determination and Suc-AAPF-NA for hCG determination (both in 100 mM Hepes buffer, pH 7.4, containing 0.05% of the […] detergent Brij-35). The activities of the individual enzymatic fractions were 100% free from cross-contamination. […] The fractions containing hLE and hCG were dialyzed each against 0.1% pyridinium acetate, pH 5.3, divided into 20 aliquots, lyophilized, and stored at −20° C. until use.
Peptides were dissolved in 100 mM Hepes buffer pH 7.4 containing 0.1% Brij-35 with 10% DMSO to yield 600 μM solutions, which were used to make further dilutions with the same buffer, and 80 μL aliquots were added in duplicates to 96-well plates. The substrate, 600 or 900 μM MeOSuc-AAPV-NA in the same buffer with 5% DMSO, was added to each well in addition to the blank wells, and the plate was placed in the plate reader equilibrated to 37° C. (Dynateck MR-6000). Lyophilized aliquots of hLE were dissolved in 1600 μL of 100 mM Hepes buffer without DMSO, and 80 μL of the enzyme solution was added to the peptides and substrate to initiate the reaction. […] The final volume was 240 μL containing: 5% DMSO, 1-200 μM of peptide, 200 μM substrate, and 0.75 μg (about 25 picomol) enzyme.
For hLE, V is determined by fitting a linear equation to the first 6 time-points (10 min) of the kinetics data using the least squares method. […] From calculating the error in the slope of the equation, the relative error for Ki was deduced:
Ki={slope*(1+[S]/Km)}^−1 because Ki=[I]*{(1+[S]/Km)*(Vo/Vi−1)}^−1.
The hLE inhibitory capability of CRP-derived peptides was evaluated by inhibiting the enzymatic cleavage of MeOSuc-AAPV-NA as described in Materials and Methods (section v).

hLE [2] = biological target: T2, hLE (Homo sapiens, UniProt P08246); assay: Degradation profiles of peptides by RP-HPLC after incubation with hLE; type: in vitro ADME; settings: incubated with hLE in PBS, 37° C., time-scale hours
T2 construct: Neutrophils (1.4 billion) were isolated from whole blood obtained from a single healthy laboratory donor; from tissue; host or cells: neutrophils from whole blood of a single healthy donor
T2 sequence (P08246 30-247 limits assumed): T1 sequence (P08246 30-247 limits assumed)
Protocol: Several active peptide inhibitors were dissolved in calcium- and magnesium-free phosphate-buffered saline (PBS), 125 μg/250 μL, mixed with 0.25 aliquots of hLE or hCG in 250 μL PBS and incubated at 37° C. Periodically (1,3,8, and 24 hour), 100 μL samples were removed from the reaction vessel. The samples were diluted with 150 μL of 0.1% TFA, frozen with liquid nitrogen, and stored at −20° C. prior to HPLC analysis.
More insight into the mechanism of inhibition is provided by HPLC time-course elution profiles of peptide 1, incubated with hLE in PBS (FIG. 2). […] The other bonds in peptide 1 are cleaved only after several days of incubation with the enzyme.

[3] = biological target: T3, human leukocyte cathepsin G (hCG) (Homo sapiens, UniProt P08311); assay: In-vitro inhibition of hCG (conversion of Suc-AAPF-NA); type: biochemical
T3 construct: Neutrophils (1.4 billion) were isolated from whole blood obtained from a single healthy laboratory donor; from tissue; host or cells: neutrophils from whole blood of a single healthy donor
T3 sequence (P08311 21-244 limits assumed): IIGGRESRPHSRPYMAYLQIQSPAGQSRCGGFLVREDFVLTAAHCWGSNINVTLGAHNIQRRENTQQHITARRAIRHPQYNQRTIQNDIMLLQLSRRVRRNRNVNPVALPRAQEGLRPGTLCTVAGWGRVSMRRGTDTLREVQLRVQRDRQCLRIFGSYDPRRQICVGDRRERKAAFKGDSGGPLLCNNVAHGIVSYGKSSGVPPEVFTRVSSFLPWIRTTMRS
Protocol: as §1
Similar conditions to hLE inhibition experiments ere used except the substrate: 80 μL of 1.8 mM Suc-AAPF-NA. The enzyme was issolved in 800 μL buffer, and the reaction was monitored every 6 min for 1 hour. The final volume was 240 μL containing: 5% DMSO, 1-500 μM peptide, 600 μM substrate, and 1.2 μg enzyme (about 40 picomol).
For hCG, V is determined by fitting a quadratic equation to the total kinetic data (60 min), using the least squares method and calculating V at t=0.
The inhibitory capability of several CRP-derived peptides was evaluated by inhibiting the enzymatic conversion of Suc-AAPF-NA (as described in Materials and Methods (vi) above).

hLE [4] = biological target: T4, hLE (Homo sapiens, UniProt P08246); settings: CRP as a whole protein; cited from earlier work
T4 sequence (P08246 30-267): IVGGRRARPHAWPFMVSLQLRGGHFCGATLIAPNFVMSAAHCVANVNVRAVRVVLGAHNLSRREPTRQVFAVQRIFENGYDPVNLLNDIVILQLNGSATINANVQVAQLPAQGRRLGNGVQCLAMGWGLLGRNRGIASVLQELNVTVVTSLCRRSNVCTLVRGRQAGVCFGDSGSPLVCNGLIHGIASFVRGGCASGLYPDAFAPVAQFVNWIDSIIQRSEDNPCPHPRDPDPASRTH

[5] = system: specific receptors on human neutrophils; settings: in vitro; cited from earlier work
[6] = biological target: specific receptors on monocytes; settings: in vitro; cited from earlier work
[7] = substrate MeOSuc-AAPV-NA, 100 mM Hepes pH 7.4, 37° C., read-out: hLE Ki
[8] = substrate Suc-AAPF-NA, 600 μM, read-out: hCG Ki

## CC[C@H](C)[C@H](NC(=O)[C@@H](Cc1c[nH]cn1)NC(=O)[C@@H](NC(=O)[C@@H]1CCCN1C(=O)[C@H](C)NC(=O)[C@@H](NC(=O)[C@@H](NC(=O)[C@@H](N)C(C)C)[C@@H](C)O)C(C)C)C(C)C)C(=O)O [Peptide 6, Val89-Thr-Val-Ala-Pro-Val-(D)His-Ile96] (H-VTVAPV[dH]I-OH; N-terminus and C-terminus assumed)
[1]
  Ki: 450 ± 45 µM
hLE [2]
  cleavage by hLE (HPLC time-course elution profile): No observable cleavage products

## CC[C@H](C)[C@H](NC(=O)[C@H](Cc1c[nH]cn1)NC(=O)[C@H](NC(=O)[C@@H]1CCCN1C(=O)[C@H](C)NC(=O)[C@@H](NC(=O)[C@@H](NC(=O)[C@@H](N)C(C)C)[C@@H](C)O)C(C)C)C(C)C)C(=O)O [Peptide 7, Val89-Thr-Val-Ala-Pro-(D)Val-His-Ile9] (H-VTVAP[dV]HI-OH; N-terminus and C-terminus assumed)
[1]
  Ki: 330 ± 130 µM
hLE [2]
  cleavage by hLE (HPLC time-course elution profile): No observable cleavage products

## CC[C@H](C)[C@H](NC(=O)[C@@H](Cc1c[nH]cn1)NC(=O)[C@H](NC(=O)[C@@H]1CCCN1C(=O)[C@H](C)NC(=O)[C@@H](NC(=O)[C@@H](NC(=O)[C@@H](N)C(C)C)[C@@H](C)O)C(C)C)C(C)C)C(=O)O [Peptide 8, Val89-Thr-Val-Ala-Pro-(D)Val-(D)His-Ile96] (H-VTVAP[dV][dH]I-OH; N-terminus and C-terminus assumed)
[1]
  Ki: 490 ± 50 µM
hLE [2]
  cleavage by hLE (HPLC time-course elution profile): No observable cleavage products

## CC[C@H](C)[C@H](NC(=O)[C@H](Cc1c[nH]cn1)NC(=O)[C@@H](NC(=O)[C@@H]1CCCN1C(=O)[C@H](C)NC(=O)[C@@H](NC(=O)[C@@H](NC(=O)[C@@H](NC(=O)Nc1cccc2ccccc12)C(C)C)[C@@H](C)O)C(C)C)C(C)C)C(=O)O [Peptide 18, Naphtyl-NH-CO-Val89-Thr-Val-Ala-Pro-Val-His-Ile96] ({NH(1-naphthyl)-CO}-VTVAPVHI-OH)
[1]
  Ki: 240 ± 35 µM
[3]
  Ki: 300 ± 40 µM

## CC[C@H](C)[C@H](NC(=O)[C@H](Cc1c[nH]cn1)NC(=O)[C@@H](NC(=O)[C@@H]1CCCN1C(=O)[C@H](C)NC(=O)[C@@H](NC(=O)[C@@H](NC(=O)[C@@H](NC(=O)[C@H](Cc1ccccc1)NC(=O)OCc1ccccc1)C(C)C)[C@@H](C)O)C(C)C)C(C)C)C(=O)O [Peptide 21, CBz-Phe-Val89-Thr-Val-Ala-Pro-Val-His-Ile96] (Cbz-FVTVAPVHI-OH)
[1]
  Ki: 380 ± 115 µM
[3]
  Ki: 430 ± 60 µM

## CC[C@H](C)[C@H](NC(=O)[C@H](Cc1c[nH]cn1)NC(=O)[C@@H](NC(=O)[C@@H]1CCCN1C(=O)[C@H](C)NC(=O)[C@@H](NC(=O)[C@@H](NC(=O)[C@@H](NC(=O)OCC1c2ccccc2-c2ccccc21)C(C)C)[C@@H](C)O)C(C)C)C(C)C)C(=O)O [Peptide 23, Fmoc-Val89-Thr-Val-Ala-Pro-Val-His-Ile96] (Fmoc-VTVAPVHI-OH)
[1]
  Ki: 1000 ± 100 µM
[3]
  Ki: 280 ± 30 µM

## CRP: plasma protein, major acute phase reactant; five identical sub-units of 206 amino acids forming a cyclic pentamer
hLE [4]
  inhibitory effect on hLE: no inhibitory effect
[5]
  Kd: ~50 nM
[6]
  Kd: ~100 nM

## DIGYSFTVGGSEILFEVPEVTVAPVHICT [Peptide 3c]
[1]
  Ki: 4 µM
[3]
  Ki: 22 ± 3 µM

## GSEILFEVPEVTVAPVHI [Peptide 2, Gly79-Ser-Glu-Ile-Leu-Phe-Glu-Val-Pro-Glu-Val-Thr-Val-Ala-Pro-Val-His-Ile96]
[1]
  Ki: 50 ± 5 µM
[3]
  Ki: 1200 ± 200 µM

## H-VTVAPVHI-OH [Peptide 1, Val89-Thr-Val-Ala-Pro-Val-His-Ile96]
[1]
  Ki: 120 ± 15 µM
[3]
  Ki: 1400 ± 200 µM
  hCG inhibitory capability (in words): slightly inhibitory
hLE [2]
  cleavage by hLE (HPLC time-course elution profile): cleaved as predicted exclusively at the Val-His bond

## SFTVGGSEILFEVPEVTVAPVHI [Peptide 3]
[1]
  Ki: 27 ± 3 µM
[3]
  Ki: 500 ± 100 µM

## SFTVGGSEILFEVPEVTVAPVHICT [Peptide 3a]
[1]
  Ki: 20 ± 3 µM
[3]
  Ki: 180 ± 30 µM

## SFTVGGSEILFEVPEVTVAPVHICTSWESA [Peptide 3b]
[1]
  Ki: 22 ± 4 µM
[3]
  Ki: 200 ± 30 µM

## VTVAPFHIP-NH2 [Peptide 13, Val89-Thr-Val-Ala-Pro-Phe-His-Ile96-Pro-NH2]
[1]; [7]
  Ki: 180 ± 30 µM
[3]; [8]
  Ki: 900 ± 200 µM

## VTVAPVFI [Peptide 10, Val89-Thr-Val-Ala-Pro-Val-Phe-Ile96]
[1]; [7]
  Ki: 110 ± 25 µM
[3]; [8]
  Ki: 1 ± 0.2 µM
